Assay [1] has as its system Carrageenin Oedema. Put plainly: Carrageenin Oedema in Rat (% protection of paw oedema). Type of assay: in vivo, rat (S.D. male). The settings on record: subcutaneous; for % Protection 2nd hour: 2nd hour after carrageenin; for % Protection 4th hour: 4th hour after carrageenin; for % Protection 6th hour: 6th hour after carrageenin. On the procedure: Carrageenin Oedema in Rat
Carrageenin+Ibuprofen (11 and 5.5 mg/kg)
Carrageenin+compound of example 8 (Br-Ax) (25.0 and 12.5 mg/kg)
Carrageenin+compound of example 7 (Br-Ab) (25.0 and 12.5 mg/kg)
Note: Ibuprofen doses are equimolar to the corresponding Br-Ab and Br-Ax doses.
S.D. male rats weighing 160-180 g
1) Control - (Carrageenin only)
Each group consisted of 5 males, trying to obtain the most homogeneous total weight for each group. The animals were inoculated subcutaneously with the test solutions homogenized in 5% gum Arabic which had been sterilized by filtration with "Acrodisc" Gelman with […] pores.
After 1 hour the animals were […] 0.1 ml of 1% carrageenin in sterile saline. Carrageenin was kept under stirring by means of a magnetic stirred, to make it as homogeneous as possible.
At the same time, the basal paw volumes were determined by means of a plethysmograph, so as to make possible to repeat the measurements in the most reliable way in the subsequent hours.
2 Hours after carrageenin inoculation, the measure of paw volumes was determined (2nd hour). Subsequently, said measurement was effected at the 4th and 6th hours from inoculation. After that, the % protection was calculated by means of the following formula: [formula]
(In the carrageenan paw model, swelling and tenderness develop within hours.)

Assay [2] has as its system bone calcium loss induced by retinoid. Nature of the assay: Bone calcium loss induced by retinoid in thyroparathyroidectomized rat (plasma Ca). Type of assay: in vivo, rat (male). The settings on record: thyroparathyroidectomized rats, retinoid s.c. 3 days, 24 hours after last administration; for Plasmatic Ca increase after retinoid adm.: controls 1.11 ± 0.03; for % inhibition (of plasmatic Ca increase after retinoid): versus controls. On the procedure:
Male rats weighing about […] are thyroparathyroidectomyzed under Nembutal anaesthesia. The animals are treated with thyroxine on alternate days during all the test. 7 Days after surgery, blood is withdrawn by means of intracardiac puncture and Ca is determined on plasma. […] 24 Hours after the last administration, animals are killed and blood is recovered to determine Ca again.
BONE CALCIUM LOSS INDUCED BY RETINOID IN RAT

As for `CC(C)Cc1ccc(C(C)C(=O)NCCCC(O)(P(=O)(O)O)P(=O)(O)O)cc1` (stereo not shown) [Br--Ab, [4-[2-(4-Isobutylphenyl)-propionyl]-amino-1-hydroxybutylidene]-diphosphonicacid], in assay [1] (12.5 mg/kg), the “% Protection 2nd hour” value amounted to 31%, the “% Protection 4th hour” value came out at 28% and the “% Protection 6th hour” value is on record as 30%. In assay [1] (25.0 mg/kg), the “% Protection 2nd hour” value is 68%, the “% Protection 4th hour” value was 57% and the “% Protection 6th hour” value is reported as 38%. Moreover, in assay [2], the “Plasmatic Ca increase after retinoid adm.” value was 0.62 ± 0.03 mmol/lt and the “% inhibition (of plasmatic Ca increase after retinoid)” value was determined as 44.1%.

In the case of `CC(C)Cc1ccc(C(C)C(=O)NCCCCCC(O)(P(=O)(O)O)P(=O)(O)O)cc1` (stereo not shown) [Br--Ax, [6-[2-(4-Isobutylphenyl)-propionyl]-amino-1-hydroxyhexylidene]-diphosphonicacid], in assay [1] (12.5 mg/kg), the “% Protection 2nd hour” value was determined as 41%, the “% Protection 4th hour” value is 36% and the “% Protection 6th hour” value is on record as 48%. For the same compound, in assay [1] (25.0 mg/kg), the “% Protection 2nd hour” value stood at 42%, the “% Protection 4th hour” value is on record as 21% and the “% Protection 6th hour” value was found to be 56%. In assay [2], the “Plasmatic Ca increase after retinoid adm.” value stood at 0.75 ± 0.17 mmol/lt and the “% inhibition (of plasmatic Ca increase after retinoid)” value is recorded as 32.4%.

Consider `CC(C)Cc1ccc(C(C)C(=O)O)cc1` (stereo not shown) [Ibuprofen, ibuprofen, reference compound], for which, in assay [1] (5.5 mg/kg), the “% Protection 2nd hour” value is given as 18%, the “% Protection 4th hour” value was determined as 3% and the “% Protection 6th hour” value is recorded as 4%. Also, in assay [1] (11.0 mg/kg), the “% Protection 2nd hour” value is given as 21%, the “% Protection 4th hour” value came to 25% and the “% Protection 6th hour” value is 28%.

The record behind these values is patent US5466682A, “Acylamino-alkyliden-hydroxy-bisphosphonic acids esters and salts thereof, wherein the acyl group is derived from an acid having antiinflammatory activity” (Istituto Gentili S.p.A., priority 1991, dated 1995).
